These compounds were tested on FIMM-PDC1 (patient-derived ovarian cancer cells) (assay: drug sensitivity score (DSS) (DSS (dimensionless)); higher = more sensitive (stronger drug response)). Conditions: genetic perturbation: none (patient-derived cell culture).
Summary of the method: (§1)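 Ovarian cancer cell lines, after at least three days of shRNA induction with 100 ng/ml doxycycline, and patient-derived cultures were plated at 1 000 – 1 500 cells per well into 384-well plates pre-loaded with drugs at five concentrations spanning a 10,000-fold range. Plates were then kept for three days at 37 °C and 5.0 % CO2. Viability was measured as CellTiter-Glo luminescence on a PHERAstar FS, and each drug's dose-response curve was reduced to a drug sensitivity score computed by a previously described method.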
Work on `COc1cc(C(=O)O)ccc1NC(=O)[C@@H]1N[C@@H](CC(C)(C)C)[C@](C#N)(c2ccc(Cl)cc2F)[C@H]1c1cccc(Cl)c1F` [Idasanutlin] yielded a drug sensitivity score of 0.5.
`O=C(Nc1ccncc1)C(=O)c1cn(Cc2ccc(Cl)cc2)c2ccccc12` [Indibulin] was tested, and the drug sensitivity score was 8.6.
Work on `CC(C)NC[C@@H](C(=O)N1CCN(c2ncnc3c2[C@H](C)C[C@H]3O)CC1)c1ccc(Cl)cc1` [Ipatasertib] yielded a drug sensitivity score of 4.2.
With `CC(C)C[C@H](NC(=O)CNC(=O)c1cc(Cl)ccc1Cl)B(O)O` [Ixazomib] the drug sensitivity score was 13.6.
Compound `CCNCCS(=O)(=O)NC[C@@]1(c2ccccc2)SC(NC(=O)C(C)(C)C)=NN1C(=O)C(C)(C)C` [Litronesib] has a drug sensitivity score of 7.8.
In the case of `NC(=O)N1CCC(CC(=O)N2CCC([C@H]3c4ncc(Br)cc4CCc4cc(Cl)cc(Br)c43)CC2)CC1` [Lonafarnib], the drug sensitivity score is reported as 9.45.
Compound `CCNC(=O)c1noc(-c2cc(C(C)C)c(O)cc2O)c1-c1ccc(CN2CCOCC2)cc1` [Luminespib] has a drug sensitivity score of 13.9.
`O=C(Nc1cccc(NC(=O)c2cccc(O)c2O)c1)c1cccc(O)c1O` [MST-312] showed a drug sensitivity score of 2.9.
Work on `CCN(CC)CCCC(C)Nc1c2ccc(Cl)cc2nc2ccc(OC)cc12` (centres undefined) [Mepacrine] yielded a drug sensitivity score of 13.6.
With `S=c1[nH]cnc2nc[nH]c12` [Mercaptopurine] the drug sensitivity score was 3.75.
In the case of `CN(Cc1cnc2nc(N)nc(N)c2n1)c1ccc(C(=O)N[C@@H](CCC(=O)O)C(=O)O)cc1` [Methotrexate], the drug sensitivity score is reported as 2.2.
`CO[C@@H]1[C@H](N(C)C(=O)c2ccccc2)C[C@H]2O[C@]1(C)n1c3ccccc3c3c4c(c5c6ccccc6n2c5c31)C(=O)NC4` [Midostaurin] gave a drug sensitivity score of 8.1.
Work on `CNC(=O)c1nn(C)c2c1C(C)(C)Cc1cnc(Nc3ccc(N4CCN(C)CC4)cc3)nc1-2` [Milciclib] yielded a drug sensitivity score of 12.7.
`CCCCCCCCCCCCCCCCOP(=O)([O-])OCC[N+](C)(C)C` [Miltefosine] gave a drug sensitivity score of 2.55.
`O=C1c2c(O)ccc(O)c2C(=O)c2c(NCCNCCO)ccc(NCCNCCO)c21` [Mitoxantrone] showed a drug sensitivity score of 4.55.
`CCS(=O)(=O)Nc1ccc(Oc2ccc(F)cc2F)c(-c2cn(C)c(=O)c3[nH]ccc23)c1` [Mivebresib] was tested, and the drug sensitivity score was 13.8.
`Nc1ccccc1NC(=O)c1ccc(CNc2nccc(-c3cccnc3)n2)cc1` [Mocetinostat] gave a drug sensitivity score of 6.35.
`CCNC(=O)C[C@@H]1N=C(c2ccc(Cl)cc2)c2cc(OC)ccc2-n2c(C)nnc21` [Molibresib] showed a drug sensitivity score of 1.7.
For `N#CCNC(=O)c1ccc(-c2ccnc(Nc3ccc(N4CCOCC4)cc3)n2)cc1` [Momelotinib], the drug sensitivity score was 0.1.
With `Cc1cc(OCc2nnc(SC3CCCC3)n2-c2cccnc2)ccc1-c1ccc(S(C)(=O)=O)cc1` [NMS-873] the drug sensitivity score was 7.55.
`COc1ccc(-c2ccc3ncc4c(c3c2)n(-c2ccc(N3CCNCC3)c(C(F)(F)F)c2)c(=O)n4C)cn1` [NVP-BGT226] gave a drug sensitivity score of 12.2.
For `COc1cc2c(cc1OC(C)C)[C@H](c1ccc(Cl)cc1)N(c1ccc(N(C)C[C@H]3CC[C@H](N4CCN(C)C(=O)C4)CC3)cc1)C(=O)C2` [NVP-CGM097], the drug sensitivity score was 5.45.
Work on `CN[C@@H](C)C(=O)N[C@H](C(=O)N1CCC[C@H]1c1nc(C(=O)c2ccc(F)cc2)cs1)C1CCCCC1` [NVP-LCL161] yielded a drug sensitivity score of 14.1.
`Cn1c(Nc2ccc(C(F)(F)F)cc2)nc2cc(Oc3ccnc(-c4ncc(C(F)(F)F)[nH]4)c3)ccc21` [NVP-RAF265] was tested, and the drug sensitivity score was 1.4.
`CC(=O)c1cc2c(o1)C(=O)c1ccccc1C2=O` [Napabucasin] was tested, and the drug sensitivity score was 10.8.
Compound `CC1(C)CCC(c2ccc(Cl)cc2)=C(CN2CCN(c3ccc(C(=O)NS(=O)(=O)c4ccc(N[C@H](CCN5CCOCC5)CSc5ccccc5)c(S(=O)(=O)C(F)(F)F)c4)cc3)CC2)C1` [Navitoclax] has a drug sensitivity score of 4.85.
Work on `CCOc1cc2ncc(C#N)c(Nc3ccc(OCc4ccccn4)c(Cl)c3)c2cc1NC(=O)/C=C/CN(C)C` [Neratinib] yielded a drug sensitivity score of 1.15.
In the case of `COC(=O)c1ccc2c(c1)NC(=O)/C2=C(\Nc1ccc(N(C)C(=O)CN2CCN(C)CC2)cc1)c1ccccc1` [Nintedanib], the drug sensitivity score is reported as 0.25.
Work on `CC(=O)c1cnc2ccc(-c3cc(Cl)c(O)c(Cl)c3)nc2c1N[C@H]1CC[C@H](CN(C)C)CC1` [OTS167] yielded a drug sensitivity score of 11.3.
With `O=C(c1cc(Cc2n[nH]c(=O)c3ccccc23)ccc1F)N1CCN(C(=O)C2CC2)CC1` [Olaparib] the drug sensitivity score was 3.45.
With `COC(=O)C[C@](O)(CCCC(C)(C)O)C(=O)O[C@@H]1C(OC)=C[C@]23CCCN2CCc2cc4c(cc2[C@H]13)OCO4` [Omacetaxine] the drug sensitivity score was 23.7.
For `CC1(C)CC[C@]2(NC(=O)C(C)(F)F)CC[C@]3(C)[C@H](C(=O)C=C4[C@@]5(C)C=C(C#N)C(=O)C(C)(C)[C@@H]5CC[C@]43C)[C@@H]2C1` [Omaveloxolone], the drug sensitivity score was 13.5.
In the case of `COc1ncc(-c2ccc3nccc(-c4ccnnc4)c3c2)cc1NS(=O)(=O)c1ccc(F)cc1F` [Omipalisib], the drug sensitivity score is reported as 11.7.

What follows are compounds tested on OVSAHO in the same assay as above. Conditions: genetic perturbation: DOX-induced PTK7 shRNA knockdown.
Summary of the method: as §1
For `COc1cc(C(=O)O)ccc1NC(=O)[C@@H]1N[C@@H](CC(C)(C)C)[C@](C#N)(c2ccc(Cl)cc2F)[C@H]1c1cccc(Cl)c1F` [Idasanutlin], the drug sensitivity score was 1.1.
With `O=C(Nc1ccncc1)C(=O)c1cn(Cc2ccc(Cl)cc2)c2ccccc12` [Indibulin] the drug sensitivity score was 6.9.
Compound `CC(C)NC[C@@H](C(=O)N1CCN(c2ncnc3c2[C@H](C)C[C@H]3O)CC1)c1ccc(Cl)cc1` [Ipatasertib] has a drug sensitivity score of under 0.
Compound `CC(C)C[C@H](NC(=O)CNC(=O)c1cc(Cl)ccc1Cl)B(O)O` [Ixazomib] has a drug sensitivity score of 5.1.
`CCNCCS(=O)(=O)NC[C@@]1(c2ccccc2)SC(NC(=O)C(C)(C)C)=NN1C(=O)C(C)(C)C` [Litronesib] was tested, and the drug sensitivity score was 8.2.
Work on `NC(=O)N1CCC(CC(=O)N2CCC([C@H]3c4ncc(Br)cc4CCc4cc(Cl)cc(Br)c43)CC2)CC1` [Lonafarnib] yielded a drug sensitivity score of 9.4.
For `CCNC(=O)c1noc(-c2cc(C(C)C)c(O)cc2O)c1-c1ccc(CN2CCOCC2)cc1` [Luminespib], the drug sensitivity score was under 0.
`O=C(Nc1cccc(NC(=O)c2cccc(O)c2O)c1)c1cccc(O)c1O` [MST-312] gave a drug sensitivity score of 9.6.
Compound `CCN(CC)CCCC(C)Nc1c2ccc(Cl)cc2nc2ccc(OC)cc12` (centres undefined) [Mepacrine] has a drug sensitivity score of 15.2.
`S=c1[nH]cnc2nc[nH]c12` [Mercaptopurine] showed a drug sensitivity score of 0.9.
For `CN(Cc1cnc2nc(N)nc(N)c2n1)c1ccc(C(=O)N[C@@H](CCC(=O)O)C(=O)O)cc1` [Methotrexate], the drug sensitivity score was under 0.
With `CO[C@@H]1[C@H](N(C)C(=O)c2ccccc2)C[C@H]2O[C@]1(C)n1c3ccccc3c3c4c(c5c6ccccc6n2c5c31)C(=O)NC4` [Midostaurin] the drug sensitivity score was 13.1.
In the case of `CNC(=O)c1nn(C)c2c1C(C)(C)Cc1cnc(Nc3ccc(N4CCN(C)CC4)cc3)nc1-2` [Milciclib], the drug sensitivity score is reported as 8.1.
For `CCCCCCCCCCCCCCCCOP(=O)([O-])OCC[N+](C)(C)C` [Miltefosine], the drug sensitivity score was 5.9.
`O=C1c2c(O)ccc(O)c2C(=O)c2c(NCCNCCO)ccc(NCCNCCO)c21` [Mitoxantrone] was tested, and the drug sensitivity score was 5.1.
With `CCS(=O)(=O)Nc1ccc(Oc2ccc(F)cc2F)c(-c2cn(C)c(=O)c3[nH]ccc23)c1` [Mivebresib] the drug sensitivity score was 19.7.

Reference: the supplement of paper PMC9386025
